Test system: Candida-Zellen
Test: Antimycotic in vivo efficacy (oral) in mouse candidiasis
Design: species or system Mäuse vom Typ SPF-CF₁
Settings: for Wirkung: mice infected i.v. with 1 - 2 x 10⁶ Candida cells, oral treatment 1 h before and 7 h after infection, 10 - 100 mg/kg each, survivors on day 6 p.i. (untreated controls about 5 %); for Wirkung (comparison with the known compounds (A) and (B)): same test, statement in words in the text
Experimental: Antimykotische in-vivo-Wirksamkeit (oral) bei Mäusecandidose
Mäuse vom Typ SPF-CF₁ wurden intravenös mit 1 - 2 x 10⁶ logarithmisch wachsenden Candida-Zellen, die in physiologischer Kochsalzlösung suspendiert werden, infiziert. Eine Stunde vor und sieben Stunden nach der Infektion werden die Tiere mit jeweils 10 - 100 mg/kg Körpergewicht der Präparate oral behandelt.
Unbehandelte Tiere starben 3 bis 6 Tage post infektionem. Die Überlebensrate am 6.Tag post infektionem betrug bei unbehandelten Kontrolltieren etwa 5 %.

Compound | Wirkung | Wirkung (comparison with the known compounds (A) and (B))
OC(Cn1cncn1)(c1ccc(F)cc1F)C1(SC(F)(F)F)CC1 (stereo not drawn) [I-1, 1-(2,4-Difluorphenyl)-1-hydroxy-2-(1,2,4-triazol-1-yl)-1-(1-trifluormethylmercapto-cycloprop-1-yl)-ethan] | +++++ (sehr gute Wirkung = 90 % Überlebende am 6.Tag.p.i.) | bessere Wirkung
[O-][S+](C(F)(F)F)C1(C(O)(Cn2cncn2)c2ccc(F)cc2F)CC1 (stereo not drawn) [I-2, 1-(2,4-Difluorphenyl)-1-hydroxy-2-(1,2,4-triazol-1-yl)-1-(trifluormethylsulfoxy-cycloprop-1-yl)-ethan] | +++++ (sehr gute Wirkung = 90 % Überlebende am 6.Tag.p.i.) | bessere Wirkung
OC(Cn1cncn1)(c1ccc(F)cc1)C1(SC(F)(F)F)CC1 (stereo not drawn) [I-4] | +++++ (sehr gute Wirkung = 90 % Überlebende am 6.Tag.p.i.) | bessere Wirkung

Reference: patent EP0313782A2, “Antimycotic preparations” (BAYER AG, priority 1987, dated 1989)
